Source: ChEMBL document CHEMBL1201862, “PubChem BioAssay data set” (2004)
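Each compound was tested at five concentrations against cells in 96-well plates for 48 hours. The concentration for 50% growth inhibition is given as GI50.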 Calls of active or inactive are those of the source. Cut-off read from the data, not from the text of the source: active = GI50 up to about 1.1 µM and inactive = higher.

Legend:
Assay in all cases: inhibition of tumour cell growth, NCI panel, 48 h
[1] = tested on: DLD-1
[2] = tested on: DMS-273
[3] = tested on: HOP-18
[4] = tested on: KM-20L2
[5] = tested on: LXFL 529
[6] = tested on: M19-MEL
[7] = tested on: RXF 631
[8] = tested on: SNB-78

Measured: GI50

CC(C)(C)c1cc(C(OCCl)(C(F)(F)F)C(F)(F)F)c2c(c1)C(C(F)(F)F)(C(F)(F)F)OC21c2ccccc2C(=O)c2ccccc21
inactive: [1] > 100 µM | [2] > 100 µM | [3] > 100 µM | [4] > 100 µM | [5] > 100 µM | [6] > 100 µM | [7] > 100 µM | [8] > 100 µM

COc1ccc2nc3cc(Cl)ccc3c(Sc3ccc([N+](=O)[O-])cc3)c2c1
inactive: [1] > 10 µM | [2] > 10 µM | [3] > 10 µM | [4] > 10 µM | [5] > 10 µM | [6] > 10 µM | [7] > 10 µM | [8] > 10 µM

C#CCNC(=O)ON1C(=O)CCC1=O
inactive: [1] > 100 µM | [2] > 100 µM | [3] > 100 µM | [4] > 100 µM | [5] > 100 µM | [6] > 100 µM | [7] > 100 µM | [8] > 100 µM

O=C(CCCCCCCCCCc1ccccc1)c1c(O)cccc1O
inactive: [1] 21.3 µM | [2] 18.2 µM | [3] 29.1 µM | [4] 61.7 µM | [5] 18.6 µM | [6] 20.7 µM | [7] 30.8 µM | [8] 45.7 µM

CCOC(=O)/C(=C\c1ccc[nH]1)C(=O)c1ccccc1
inactive: [1] > 100 µM | [2] 26.2 µM | [3] 78.9 µM | [4] > 100 µM | [5] > 100 µM | [6] > 100 µM | [7] > 100 µM | [8] > 100 µM

O=C(Cc1nc2ccccc2c(=O)n1-c1c(Cl)cccc1Cl)c1ccncc1
inactive: [1] 26.7 µM | [2] 19.4 µM | [3] 33.8 µM | [4] 27.5 µM | [5] 27.7 µM | [6] 20.3 µM | [7] 23.9 µM | [8] 34.1 µM

COC1=C2CC(C)CC(OC)C(O)C(C)/C=C(\C)C(OC(N)=O)C(OC)/C=C\C=C(/C)C(=O)NC(=C(/C=N/N3CCCCC3)C1=O)C2=O (stereo unspecified)
inactive: [1] 8.47 µM | [2] 13.6 µM | [3] 11.9 µM | [4] 5 µM | [5] 10 µM | [6] 7 µM | [7] 8.28 µM | [8] 12.4 µM

Cc1ccc(C2=NN(C)COC2C(F)(F)F)cc1 (stereo unspecified)
inactive: [1] > 100 µM | [2] > 100 µM | [3] > 100 µM | [4] > 100 µM | [5] > 100 µM | [6] > 100 µM | [7] > 100 µM | [8] > 100 µM

CCOC(=O)N1CCN(C=S)CC1
inactive: [1] > 100 µM | [2] > 100 µM | [3] > 100 µM | [4] > 100 µM | [5] > 100 µM | [6] > 100 µM | [7] > 100 µM | [8] > 100 µM

C/C(=C1/N=C(c2cc([N+](=O)[O-])ccc2Cl)N(c2cccc(C)c2)C1=O)c1cc2ccccc2oc1=O
inactive: [1] 31.7 µM | [2] 80.7 µM | [3] 74.6 µM | [4] > 100 µM | [5] 84.9 µM | [6] 66.2 µM | [7] > 100 µM | [8] > 100 µM

c1ccc([P+](CCC[P+](c2ccccc2)(c2ccccc2)c2ccccc2)(c2ccccc2)c2ccccc2)cc1
inactive: [1] 56.6 µM | [2] 9.91 µM | [3] 54.7 µM | [4] 33.5 µM | [5] 11.3 µM | [6] 19.9 µM | [7] > 100 µM | [8] 52.8 µM

O=C1c2c(n(Cc3ccccc3)c(=O)n2Cc2ccccc2)C(=O)N1Cc1ccccc1
inactive: [1] 63 µM | [2] 31.4 µM | [3] > 100 µM | [4] 52.7 µM | [5] 35 µM | [6] > 100 µM | [7] 62.7 µM | [8] > 100 µM

O=C(/C=C/c1ccccc1Cl)c1ccc(Cl)cc1Cl
inactive: [1] 17.3 µM | [2] 15.7 µM | [3] 17 µM | [4] 15.1 µM | [5] 16.2 µM | [6] 18 µM | [7] 19 µM | [8] 19.1 µM

CCO/C(CCn1[nH]c(=O)c(Cl)c(Cl)c1=O)=N\NC(=O)C(=O)NN
inactive: [1] > 100 µM | [2] > 100 µM | [3] > 100 µM | [4] > 100 µM | [5] > 100 µM | [6] > 100 µM | [7] > 100 µM
